Experimental data: publication PMC11447181 (Nature Communications, 2024)
Entries after “also recorded” stand apart in the source; their conditions may differ.

Experiments:
hSLC19A3-wt = target: T1, hSLC19A3-wt (Homo sapiens, UniProt Q9BZV2); experiment: nanoDSF thermal shift assay / apparent binding affinity, wildtype transporter; conditions: for thermal shift / interaction with hSLC19A3, in words: thermal shift screen at 20 μM and 200 μM compound
T1 construct: full-length, wildtype human SLC19A3; made in house; host or cells: Expi293F
T1 sequence (Q9BZV2 with tags, fused parts or gaps): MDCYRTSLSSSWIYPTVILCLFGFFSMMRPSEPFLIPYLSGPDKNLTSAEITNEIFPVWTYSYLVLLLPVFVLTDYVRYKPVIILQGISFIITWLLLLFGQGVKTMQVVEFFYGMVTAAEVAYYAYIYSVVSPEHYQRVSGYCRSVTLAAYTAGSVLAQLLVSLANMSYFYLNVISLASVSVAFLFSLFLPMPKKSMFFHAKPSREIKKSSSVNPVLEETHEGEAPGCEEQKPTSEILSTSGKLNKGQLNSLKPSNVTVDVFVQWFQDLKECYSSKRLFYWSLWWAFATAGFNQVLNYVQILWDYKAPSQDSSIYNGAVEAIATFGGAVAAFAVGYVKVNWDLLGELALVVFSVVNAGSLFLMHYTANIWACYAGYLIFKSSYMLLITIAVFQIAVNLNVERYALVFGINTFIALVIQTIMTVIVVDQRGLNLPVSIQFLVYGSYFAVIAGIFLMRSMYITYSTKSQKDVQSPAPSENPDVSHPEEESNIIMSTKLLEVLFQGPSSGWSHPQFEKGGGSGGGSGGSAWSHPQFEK
Description: The thermal stability of the hSLC19A3 constructs and their binding affinities for small molecules were determined by nanoDSF, using a Prometheus NT.48 (NanoTemper Technologies). For sample preparation, the protein was diluted to a final concentration of 4 μM in SEC buffer and supplied with the respective compounds in a concentration range from 2 μM to 2 mM. Before measurement, the samples were incubated for 30 min at room temperature. Melting scans were performed at a temperature range from 20 to 95 °C with a temperature increment of 1 °C per minute. Thermal unfolding curves were recorded by measuring the ratio of the tryptophan-fluorescence at 350 nm (F350) and 330 nm (F330). The protein melting temperature (Tm) of a given sample was determined as the inflection point of the thermal unfolding curves, or the local maximum of its first derivative. The measured curves were analysed using the manufacturer’s software (PR.ThermControl, v 2.1.2, NanoTemper Technologies). Based on the determined Tm values, ligand induced thermal shifts (ΔTm) were determined as the difference between the melting temperature of the ligand-bound state (Tm) and the apo state (Tm^apo).
As R, Tstd and L are known and the ΔTm and Tm^apo are experimentally determined, non-linear curve fitting can be used to estimate Ea1 and Kd,app.

[1] = target: T2, hSLC19A3-wt overexpressed in Expi293F cells (Homo sapiens, UniProt Q9BZV2); experiment: Mass spectrometry-based cellular thiamine-d3 uptake assay; assay type: cell-based; conditions: 200 μM compound, 2 μM thiamine-d3, 5 min, n = 3
T2 construct: full-length, wildtype human SLC19A3; expressed in transfected cells; host or cells: Expi293F
T2 sequence (Q9BZV2 with tags, fused parts or gaps): as above
Description: The cells were then pelleted for 5 min at 250×g and resuspended in 1×PBS (pH 7.4) at a cell density of 2 million cells per mL. The cell suspension was subsequently transferred to a 96-deep well plate in three technical replicates per condition (n = 3, 1 mL per well, corresponding to 2 million cells per condition). 200 μM of the selected compounds were added to the respective wells and the cells were incubated for 1 min on a shaking platform. […] Afterwards, the cells were pelleted for 5 min at 500×g and washed 3× with 1 mL 1×PBS (pH7.4), before transferring them to a fresh 96-deep well plate. The cell pellets were stored at –70 °C. For the LC-MS/MS analysis, the samples were extracted by adding 500 µL of a mixture of H2O:MeOH:ACN (1:1:1, v/v), containing 5% (v/v) formic acid. After vortexing and ultrasonication in a water bath for 5 min at 4 °C, samples were incubated for 20 min at –20 °C. […] The supernatants were then transferred for LC-MS analysis, which was initiated within one hour after sample preparation. LC-MS/MS analysis was performed on a Vanquish UHPLC system coupled to an Orbitrap Exploris 240 high-resolution mass spectrometer (Thermo Fisher Scientific, MA, USA) in positive ESI (electrospray ionization) mode. Chromatographic separation was carried out on an Atlantis Premier BEH Z-HILIC column (Waters, MA, USA; 2.1 mm × 100 mm, 1.7 µm) at a flow rate of 0.25 mL/min. The mobile phase consisted of water:acetonitrile (9:1, v/v; mobile phase phase A) and acetonitrile:water (9:1, v/v; mobile phase B), which were modified with a total buffer concentration of 10 mM ammonium formate. The aqueous portion of each mobile phase was adjusted to pH 3.0 via addition of formic acid. The following gradient (8 min total run time including re-equilibration) was applied (time [min]/%B): 0/90, 3/85, 3.5/60, 4/60, 5/90, 8/90. Column temperature was maintained at 40 °C, the autosampler was set to 4 °C and sample injection volume was set to 3 µL. Analytes were recorded via a full scan with a mass resolving power of 120,000 over a mass range from 60 to 900 m/z (scan time: 100 ms, RF lens: 70%).
All experimental samples were measured in a randomized manner. Pooled quality control (QC) samples were prepared by mixing equal aliquots from each processed sample. Multiple QCs were injected at the beginning of the analysis in order to equilibrate the analytical system. A QC sample was analyzed after every 6th experimental sample to monitor instrument performance throughout the sequence. For determination of background signals and subsequent background subtraction, an additional processed blank sample was recorded. Data was processed using TraceFinder 5.1 and raw peak area data was exported for relative metabolite quantification.

SLC19A3 = conditions: cited from earlier work
[2] = target: glycosylation-free mutant of hSLC19A3 (hSLC19A3-gf) (human, UniProt Q9BZV2 1-496, Asn45 mutated to glutamine | Asn166 mutated to glutamine); experiment: BLI
glycosylation-free mutant of hSLC19A3 (hSLC19A3-gf), sequence (Q9BZV2 other isoform, or with tags, fused parts or gaps with the stated changes): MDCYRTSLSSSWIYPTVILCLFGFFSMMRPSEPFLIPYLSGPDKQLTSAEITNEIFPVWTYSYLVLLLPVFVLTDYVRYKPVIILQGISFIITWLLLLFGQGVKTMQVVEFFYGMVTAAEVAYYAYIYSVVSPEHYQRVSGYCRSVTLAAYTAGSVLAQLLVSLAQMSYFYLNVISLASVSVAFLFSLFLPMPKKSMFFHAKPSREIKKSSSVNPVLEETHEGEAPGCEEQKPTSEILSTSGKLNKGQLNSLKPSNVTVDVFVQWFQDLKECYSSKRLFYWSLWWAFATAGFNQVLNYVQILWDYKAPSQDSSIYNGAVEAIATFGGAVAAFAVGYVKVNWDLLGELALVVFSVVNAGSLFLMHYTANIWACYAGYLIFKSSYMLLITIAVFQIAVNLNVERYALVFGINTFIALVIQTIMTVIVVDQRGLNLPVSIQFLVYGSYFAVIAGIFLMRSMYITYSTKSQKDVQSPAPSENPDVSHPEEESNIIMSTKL

Row | Molecule | thermal shift / interaction with hSLC19A3, in words (hSLC19A3-wt) | inhibition of thiamine uptake through hSLC19A3, in words [1] | other results
1 | CN(C)CCC=C1c2ccccc2CCc2ccccc21 [amitriptyline] | destabilize the transporter in a concentration-dependent manner | inhibit its thiamine transport activity | –
2 | CCCc1ncc(C[n+]2ccccc2C)c(N)n1 [amprolium] | strongly stabilised the transporter against heat unfolding in a concentration-dependent manner | – | –
3 | CCS(=O)(=O)N1CC(CC#N)(n2cc(-c3ncnc4[nH]ccc34)cn2)C1 [baricitinib] | did not stabilise hSLC19A3 | – | –
4 | O=C(O)CCCC[C@@H]1SC[C@@H]2NC(=O)N[C@@H]21 [biotin] | does not interact with the transporter | – | –
5 | CN(C)CCCC1(c2ccc(F)cc2)OCc2cc(C#N)ccc21 (stereo not drawn) [citalopram] | also interact with hSLC19A3 | interferes with thiamine uptake | –
6 | Cc1nc(Nc2ncc(C(=O)Nc3c(C)cccc3Cl)s2)cc(N2CCN(CCO)CC2)n1 [dasatinib] | – | interfered with thiamine-uptake through hSLC19A3 | –
7 | CN(C)CCC=C1c2ccccc2COc2ccccc21 [doxepin] | destabilize the transporter in a concentration-dependent manner | inhibit its thiamine transport activity | –
8 | COc1cc2ncnc(Nc3ccc(F)c(Cl)c3)c2cc1OCCCN1CCOCC1 [gefitinib] | – | interfered with thiamine-uptake through hSLC19A3 | –
9 | CCN(CCO)CCCC(C)Nc1ccnc2cc(Cl)ccc12 (stereo not drawn) [hydroxychloroquine] | strongly stabilises hSLC19A3 | – | Kd (hSLC19A3-wt): 170 ± 55 nM
10 | Cc1ccc(NC(=O)c2ccc(CN3CCN(C)CC3)cc2)cc1Nc1nccc(-c2cccnc2)n1 [imatinib] | strongly stabilized hSLC19A3 | interfered with thiamine-uptake through hSLC19A3; also recorded: inhibitory effect comparable to the one of fedratinib | Kd (hSLC19A3-wt): 4400 ± 500 nM
11 | CN(C)CCCN1c2ccccc2CCc2ccccc21 [imipramine] | destabilize the transporter in a concentration-dependent manner | inhibit its thiamine transport activity | –
12 | N#CCNC(=O)c1ccc(-c2ccnc(Nc3ccc(N4CCOCC4)cc3)n2)cc1 [momelotinib] | did not stabilise hSLC19A3 | – | –
13 | Cc1ncc(C[n+]2csc(CCO)c2C)c(=O)[nH]1 [oxythiamine] | strongly decreased affinity and a lower thermostabilisation of the transporter; also recorded: stabilises the transporter only weakly | – | –
14 | CCc1nc(N)nc(N)c1-c1ccc(Cl)cc1 [pyrimethamine] | – | – | ΔTm at 20 µM (hSLC19A3-wt; read-out: ΔTm (thermostabilisation)): 9.3 ± 0.5 °C
15 | CN[C@H]1CC[C@@H](c2ccc(Cl)c(Cl)c2)c2ccccc21 [sertraline] | – | – | ΔTm (hSLC19A3-wt; at low micromolar concentrations, nanoDSF): 2.5 ± 0.4 °C
16 | Cc1ncc(C[n+]2csc(CCOP(=O)(O)O)c2C)c(N)n1 [thiamine-p, thiamine monophosphate] | strongly reduced affinity | – | –
17 | Cc1ncc(C[n+]2csc(CCO[P@](=O)(O)OP(=O)(O)O)c2C)c(N)n1 [thiamine-pp, thiamine pyrophosphate] | does not stabilise the transporter at all | – | –
18 | C[C@@H]1CCN(C(=O)CC#N)C[C@@H]1N(C)c1ncnc2[nH]ccc12 [tofacitinib] | stabilising hSLC19A3 | shows no inhibitory effect on thiamine transport | –
19 | COc1cc(Cc2cnc(N)nc2N)cc(OC)c1OC [trimethoprim] | – | – | substrate status at the transporter (SLC19A3): xenobiotic substrates of the transporter
20 | nanobody Nb3.4 (VHH) VHH: QVQLVESGGGLVQAGDSLRLSCAASGLTFSRYDMAWFRQAPGKEREFVAAITWTGSITDYADSVKGRFTISRDNAKNTIYLQMNSLKPEDTAVYYCAAAQVPYGSTLKFNLRTLFGSWGQGTQVTVSS | – | – | Kd [2]: 280 nM
21 | nanobody Nb3.7 (VHH) VHH: QVQLVESGGGLVQPGDSLRLSCAASGRTFSINAMAWFRQAPGKEREYVAQISWTGGNTYYAESVKGRFTISRDNAKNTVYLQMISLKPEDTAVYYCAADSGGIRLGASRWNYWGQGTQVTVSS | – | – | Kd [2]: 110 nM
22 | nanobody Nb3.3 (VHH) VHH: QVQLVESGGGLVQAGDSLRLSCAASGRTFSNYYMAWFRQAPGKEREFVAAIRLSYGSTYYADSVRGRFTISKDNAKNTVNLRMNSLKSEDTAIYYCAAAEDRWALAVRTATTYNYWGQGTQVTVSS | – | – | Kd [2]: 200 nM
